Laboratory results from paper PMC7062083, “Metabolite identification, tissue distribution, excretion and preclinical pharmacokinetic studies of ET-26-HCl, a new analogue of etomidate” (Royal Society Open Science, 2020).

Columns and labels:
[1] = Pharmacokinetics in beagle dogs after intravenous administration; assay type: in vivo; conditions: beagle dogs; for λ: i.v.; for Vd / half-life / AUC0-t / Cmax / clearance: both sexes, dog, plasma, iv; for Vd / half-life: beagle
Method: Concentrations of ET-26-HCl and ET-26-acid in biological samples were determined by liquid chromatography–tandem mass spectrometry (LC–MS/MS) after deproteinization with methanol. The bioanalytical method for simultaneous quantification of ET-26-HCl and ET-26-acid in the different matrix was fully validated according to FDA guidelines (electronic supplementary material, figure S1 and tables S1 and S2) in our previous study. Briefly, a 100 µl sample (plasma, tissue homogenate, bile, urine and faeces suspension) were spiked with 20 µl of IS solution and vortexed for 30 s. The mixture was then processed for protein precipitation with 300 µl methanol, followed by centrifugation at 12 000 r.p.m. for 5 min. Supernatant was collected and analysed by LC–MS/MS system.
The LC–MS/MS was performed as described previously. Briefly, ET-26-HCl, ET-26-acid and GBP were separated using a CAPCELL PAK C18 column (50 × 2.00 mm, 5.00 µm) as well as a Security Guard Cartridge (C18, 4 mm × 3.00 mm i.d., Phenomenex). The mobile phase consisting of 0.3% formic acid water (A), and methanol (B) was pumped at a flow rate of 0.6 ml min^−1. The gradient elution was achieved according to the following protocol: 0 min to about 0.50 min, A/B (41/9, v/v); 0.51 min to about 1.5 min, A/B (1/9, v/v); and 1.51 min to about 2.00 min, A/B ([…], v/v). Mass spectrometry was conducted on an API 3000 mass spectrometer (Sciex, Framingham, MA, USA) equipped with an electrospray ionization (ESI) source operating in positive mode. The MS/MS system was in the multiple reaction monitoring (MRM) mode, using the m/z transitions of 275.6/170.9 for ET-26-HCl, 217.7/113.1 for ET-26-acid and 172.5/154.3 for GBP (IS), respectively. The API 3000 mass parameters were set according to the following protocol: curtain gas, 6 psi; collision gas, 8 psi; nebulizer, 4 psi; ion spray voltage, 3000 V and ion source temperature, 450°C. The autosampler was conditioned at 4°C, and the injection volume was 5 µl. The linear ranges of this analytical method for ET-26-HCl and for ET-26-acid from all biological samples are shown in electronic supplementary material, table S3.
Beagle dogs, weighing 9–11 kg, were purchased from Sichuan Industrial of Antibiotics, China National Pharmaceutical Group Corporation (Chengdu, China). A 3 × 3 crossover experimental design with 24 beagles (equal number of male and female dogs) randomly divided into six groups was conducted. Beagle dogs in the six groups received three doses of ET-26-HCl: 1.045 mg kg^−1, 2.090 mg kg^−1 and 4.180 mg kg^−1 as low (L), medium (M) and high (H) dose. Blood samples (2 ml) were collected from the elbow vein in 4 ml heparinized tubes before dosing, and at 1, 3, 5, 10, 20, 30, 120 and 180 min post-dosing. All blood samples were centrifuged at 8000 r.p.m. for 10 min and plasma collected and stored at −80°C until analysis.
All calculations were performed on Microsoft Excel 2016 (Microsoft Co., USA). The Drug and Statistics 3.2.7 (DAS 3.2.7) software package (Mathematical Pharmacology Professional Committee of China, China) was used to acquire the main pharmacokinetic parameters of ET-26-HCl. All data were shown as mean ± standard deviation (s.d.). Statistical significances were calculated by one-way analysis of variance (ANOVA).

[2] = Identification of major metabolites in liver microsomes (UPLC-Q-TOF-MS); assay type: in vitro ADME, mouse, rat, beagle dog, monkey and human; conditions: 10 µM ET-26-HCl, 1 mg ml^−1 liver microsomes, NADPH, 1 h
Method: The major metabolites of ET-26-HCl in liver microsomes from mouse, rat, beagle dog, monkey and human were determined by the UPLC-Q-TOF-MS system.
Reaction mixture containing 10 µM ET-26-HCl, […] MgCl2 and 1 mg ml^−1 liver microsomes in Tris-HCl phosphate buffer (pH 7.4) was pre-incubated for 6 min at 37°C, followed by the addition of NADPH. After incubation for 1 h, methanol was added to stop the reaction. Samples were centrifuged at 11 000 r.p.m. for 5 min; supernatants were collected and air dried at 40°C. Residues were dissolved in 100 µl acetonitrile/water (1:1, v/v) and analysed by the UPLC-Q-TOF-MS.
The UPLC-Q-OF-MS system was equipped with a Waters Synapt G2-Si quadrupole time-of-flight mass spectrometer (Q-TOF-MS), an ESI source and an ACQUITY UPLC H-CLASS liquid chromatography system. The chromatographic separations were achieved on an ACQUITY UPLC BEH C18 column (2.1 × 100 mm, i.d. 1.7 µm, Waters, USA) kept at 45°C and a flow rate of 0.4 ml min^−1. The mobile phase consisted of 5 mM ammonium acetate with 0.1% formic acid (A) and acetonitrile with 0.1% formic acid (B). The optimized gradient elution programme followed was 0 min to 2.1 min, A/B (19/1, v/v); 2.1 min to 7.3 min, A/B (1/4, v/v); 7.3 min to 8.0 min, A/B (1/9, v/v); and 8.0 min to 10 min, A/B (19/1, v/v). The injection volume was 5 µl. The mass experiment was operated in positive ion modes under the following parameters: turbo spray temperature, 120°C; ion spray voltage, 3.0 kV. Nitrogen was used as the nebulizer and the auxiliary gas; meanwhile, the nebulizer gas was set to 650 l h^−1 and kept at 350°C. The collision energy was set at 5–10 V and the collision energy spread was 4–6 V. TOF-MS was scanned with the mass range of m/z 50–600 with 200 ms accumulation time. A 400 ng ml^−1 leu-enkephalin (m/z 556.2771) was selected as an external standard for mass–charge ratio correction at a flow rate of 5 µl min^−1.

COCCOC(=O)c1cncn1[C@H](C)c1ccccc1.Cl [ET-26-HCl, (R)-2-methoxyethyl1-(1-phenylethyl)-1H-imidazole-5-carboxylate hydrochloride]
λ ([1]; 1.045 mg kg^−1): 0.78 ± 0.06 1 h^−1
λ ([1]; 2.09 mg kg^−1): 0.54 ± 0.06 1 h^−1
λ ([1]; 4.18 mg kg^−1): 0.36 ± 0.06 1 h^−1
Vd ([1]; 1.045 mg/kg, 1.045 mg kg^−1): 2.54 ± 0.29 L/kg
half-life ([1]; 1.045 mg/kg, 1.045 mg kg^−1): 0.92 ± 0.08 h
Vd ([1]; 2.09 mg/kg, 2.09 mg kg^−1): ~4 L/kg
half-life ([1]; 2.09 mg/kg, 2.09 mg kg^−1): ~1 h
Vd ([1]; 4.18 mg/kg, 4.18 mg kg^−1): 4.63 ± 0.67 L/kg
half-life ([1]; 4.18 mg/kg, 4.18 mg kg^−1): 2.17 ± 0.5 h
AUC0-t ([1]; 1.045 mg kg^−1): 30.1 µg·h/mL
Cmax ([1]; 1.045 mg kg^−1): 1.48 ± 0.14 µg/mL
clearance ([1]; 1.045 mg kg^−1): 1.92 L/h/kg
AUC0-t ([1]; 2.09 mg kg^−1): 62.7 µg·h/mL
Cmax ([1]; 2.09 mg kg^−1): 2.85 ± 0.22 µg/mL
clearance ([1]; 2.09 mg kg^−1): 1.8 L/h/kg
AUC0-t ([1]; 4.18 mg kg^−1): 130 µg·h/mL
Cmax ([1]; 4.18 mg kg^−1): 6.23 ± 0.24 µg/mL
clearance ([1]; 4.18 mg kg^−1): 1.5 L/h/kg
source (liver microsomes) in which detected [2]: human and dog
source (liver microsomes) in which detected ([2]; listed as M0): human, dog
